The text below walks through data of patent US8148531B2 (Chroma Therapeutics Ltd., priority 2005, dated 2012).

The target in one assay is T1, Aurora-A (Homo sapiens, UniProt O14965).
T1 sequence (O14965 1-403): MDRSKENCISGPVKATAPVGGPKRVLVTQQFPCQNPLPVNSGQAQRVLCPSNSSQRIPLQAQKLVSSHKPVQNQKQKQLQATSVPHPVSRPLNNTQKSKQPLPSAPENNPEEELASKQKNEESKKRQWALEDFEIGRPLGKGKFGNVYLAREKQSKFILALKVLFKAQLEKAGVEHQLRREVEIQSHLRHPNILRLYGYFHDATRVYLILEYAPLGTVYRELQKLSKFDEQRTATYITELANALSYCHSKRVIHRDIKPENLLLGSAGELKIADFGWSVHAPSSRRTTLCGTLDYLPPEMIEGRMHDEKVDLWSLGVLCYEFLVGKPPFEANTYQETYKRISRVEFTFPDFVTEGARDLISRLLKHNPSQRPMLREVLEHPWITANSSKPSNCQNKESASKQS
The experiment in a line: Aurora-A enzyme assay (MBP-coated Flashplate, γ-33P-ATP). The class given is biochemical. Conditions: IC50 range class; read-out: Inhibitor Activity vs Aurora-A. Summed up:
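Aurora-A incubated with γ-33P-ATP in myelin basic protein-coated Flashplate wells, 1 h at 37° C, then washed and scintillation counted. IC50 obtained by sigmoidal variable-slope nonlinear regression of % activity against log compound concentration.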

A further assay concerns the target Aurora-B (Homo sapiens, UniProt Q96GD4). Description: Aurora-B enzyme assay (identical protocol as Aurora-A). In kind it is biochemical. Conditions: IC50 range class; read-out: Inhibitor Activity vs Aurora-B. The essentials:
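Aurora-B was assayed in the same way as Aurora-A: kinase and γ-33P-ATP were incubated for 1 h at 37 °C in myelin basic protein-coated scintillation plates. After washing, bound radioactivity was counted. IC50 values came from a variable-slope sigmoidal fit of % activity against log compound concentration.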

A further assay concerns HUT cell line. Description: Cell inhibition assay (SRB cell viability), HUT. In kind it is cell-based. The settings on record: IC50 range class, 72 h, read-out: Inhibitor Activity vs HUT cell line. Summed up: (§1)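 Log-phase cells seeded at 1000 cells/well, grown 24 h, then exposed to compounds (20 uM final) for 72 h. Viability read by sulphorhodamine B staining as % inhibition versus DMSO; IC50 from eight-point sigmoidal variable-slope fit.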

Another assay relates to U937 cell line. The experiment in a line: Cell inhibition assay (SRB cell viability), U937. The class given is cell-based. The settings on record: Homo sapiens, U-937, IC50 range class, 72 h, read-out: Inhibitor Activity vs U937 cell line. The essentials: as §1
The subject of a further assay is HCT 116 cell line. Description: Cell inhibition assay (SRB cell viability), HCT 116. The class given is cell-based. Conditions: Homo sapiens, IC50 range class, 72 h, read-out: Inhibitor Activity vs HCT 116 cell line. The essentials: as §1

Sequence of Aurora-B (Q96GD4 whole entry): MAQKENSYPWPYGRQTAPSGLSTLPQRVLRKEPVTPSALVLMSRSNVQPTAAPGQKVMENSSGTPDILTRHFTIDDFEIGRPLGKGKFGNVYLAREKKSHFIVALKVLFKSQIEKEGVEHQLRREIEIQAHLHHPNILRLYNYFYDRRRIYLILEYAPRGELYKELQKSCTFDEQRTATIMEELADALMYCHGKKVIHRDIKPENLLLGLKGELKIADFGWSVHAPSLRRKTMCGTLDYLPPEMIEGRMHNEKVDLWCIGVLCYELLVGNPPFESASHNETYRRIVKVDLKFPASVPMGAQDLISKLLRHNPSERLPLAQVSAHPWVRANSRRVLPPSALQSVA

With `COc1cc2c(Sc3ccc(NC(=O)C4CC4)cc3)ccnc2cc1OCC[C@H](N)C(=O)OC1CCCC1` [Example 20, (S)-2-Amino-4-{4-[4-(cyclopropanecarbonyl-amino)-phenylsulfanyl]-6-methoxy-quinolin-7-yloxy}-butyric acid cyclopentyl ester], the IC50 at Aurora-A is > 5000 nM; at Aurora-B it was > 5000 nM; in the assay on HUT cell line it was < 1000 nM; in the assay with U937 cell line it was < 1000 nM; in the assay on HCT 116 cell line, < 1000 nM.

For `COc1cc2c(Oc3ccc(NC(=O)c4ccccc4)cc3)c(Br)cnc2cc1OCC[C@H](N)C(=O)OC1CCCC1` [Example 32], the IC50 was > 5000 nM on Aurora-A; > 5000 nM on Aurora-B; 1000 to 5000 nM in the assay with HUT cell line; 1000 to 5000 nM in the assay with U937 cell line; > 5000 nM with HCT 116 cell line.

On to `COc1cc2c(Oc3ccc(NC(=O)c4ccccc4)cc3)ccnc2cc1OCC[C@H](N)C(=O)OC(C)(C)C` [Example 50, (S)-2-Amino-4-[4-(4-benzoylamino-phenoxy)-6-methoxy-quinolin-7-yloxy]-butyric acid tert-butyl ester], for which the IC50 is 2000 to 5000 nM at Aurora-A; 2000 to 5000 nM on Aurora-B; < 1000 nM in the assay on HUT cell line; < 1000 nM in the assay with U937 cell line; < 1000 nM in the assay on HCT 116 cell line.

Consider `COc1cc2c(Oc3ccc(NC(=O)c4cccc(F)c4)cc3)ccnc2cc1OCC[C@H](N)C(=O)OC1CCCC1` [Example 55, (S)-2-Amino-4-{4-[4-(3-fluoro-benzoylamino)-phenoxy]-6-methoxy-quinolin-7-yloxy}-butyric acid cyclopentyl ester], for which the IC50 is 2000 to 5000 nM on Aurora-A; 2000 to 5000 nM at Aurora-B; < 1000 nM in the assay on HUT cell line; < 1000 nM with U937 cell line; < 1000 nM in the assay with HCT 116 cell line.

Turning to `COc1cc2c(Oc3ccc(NC(=O)Nc4ccc(C(F)(F)F)cc4)cc3)ccnc2cc1OCC[C@H](N)C(=O)OC1CCCC1` [Example 93, (S)-2-Amino-4-(6-methoxy-4-{4-[3-(4-trifluoromethyl-phenyl)-ureido]-phenoxy}-quinolin-7-yloxy)-butyric acid cyclopentyl ester], the IC50 at Aurora-A is < 2000 nM; at Aurora-B, 2000 to 5000 nM; with HUT cell line, < 1000 nM; in the assay on U937 cell line, < 1000 nM; with HCT 116 cell line it was < 1000 nM.

Take `COc1cc2c(Oc3ccc(NC(=O)Nc4ccccc4)cc3)ccnc2cc1OCC[C@H](N)C(=O)OC1CCCC1` [Example 95, (S)-2-Amino-4-{6-methoxy-4-[4-(3-phenyl-ureido)-phenoxy]-quinolin-7-yloxy}-butyric acid cyclopentyl ester]: the IC50 at Aurora-A was 2000 to 5000 nM; at Aurora-B, 2000 to 5000 nM; with HUT cell line, < 1000 nM; with U937 cell line, < 1000 nM; in the assay with HCT 116 cell line, < 1000 nM.

Consider `COc1cc2c(Oc3ccc(NC(=O)c4ccccc4)cc3)ccnc2cc1OCC[C@@H](N)C(=O)OC1CCCC1` [Example 99, (R)-2-Amino-4-[4-(4-benzoylamino-phenoxy)-6-methoxy-quinolin-7-yloxy]-butyric acid cyclopentyl ester], for which the IC50 is 2000 to 5000 nM on Aurora-A; 2000 to 5000 nM at Aurora-B; < 1000 nM in the assay on HUT cell line; < 1000 nM with U937 cell line; < 1000 nM in the assay on HCT 116 cell line.

Turning to `COc1cc2c(Oc3ccc(NC(=O)Nc4ccccc4)cc3)ccnc2cc1OCC[C@@H](N)C(=O)OC1CCCC1` [Example 101, (R)-2-Amino-4-{6-methoxy-4-[4-(3-phenyl-ureido)-phenoxy]-quinolin-7-yloxy}-butyric acid cyclopentyl ester], the IC50 at Aurora-A was 2000 to 5000 nM; at Aurora-B, < 2000 nM; in the assay with HUT cell line, < 1000 nM; in the assay on U937 cell line, < 1000 nM; in the assay with HCT 116 cell line, < 1000 nM.

Regarding `COc1cc2c(Oc3ccc(NC(=O)c4ccccc4)cc3)ccnc2cc1OCCC[C@H](N)C(=O)OC1CCCC1` [Example 109, (S)-2-Amino-5-[4-(4-benzoylamino-phenoxy)-6-methoxy-quinolin-7-yloxy]-pentanoic acid cyclopentyl ester], the IC50 at Aurora-A is 2000 to 5000 nM; on Aurora-B it was 2000 to 5000 nM; in the assay with HUT cell line, < 1000 nM; in the assay on U937 cell line it was < 1000 nM; in the assay on HCT 116 cell line, < 1000 nM.

With `COc1cc2c(Oc3ccc(NC(=O)Nc4ccccc4)cc3)ccnc2cc1OCCC[C@H](N)C(=O)OC1CCCC1` [Example 111, (S)-2-Amino-5-{6-methoxy-4-[4-(3-phenyl-ureido)-phenoxy]-quinolin-7-yloxy}-pentanoic acid cyclopentyl ester], the IC50 was 2000 to 5000 nM at Aurora-A; 2000 to 5000 nM on Aurora-B; < 1000 nM in the assay on HUT cell line; < 1000 nM with U937 cell line; < 1000 nM in the assay with HCT 116 cell line.

On to `COc1cc2c(Oc3ccc(NC(=O)c4ccccc4)cc3)ccnc2cc1OCCC[C@@H](N)C(=O)OC1CCCC1` [Example 115, (R)-2-Amino-5-[4-(4-benzoylamino-phenoxy)-6-methoxy-quinolin-7-yloxy]-pentanoic acid cyclopentyl ester], for which the IC50 on Aurora-A is 2000 to 5000 nM; at Aurora-B, 2000 to 5000 nM; with HUT cell line, < 1000 nM; in the assay with U937 cell line, < 1000 nM; in the assay with HCT 116 cell line it was < 1000 nM.

Regarding `COc1cc2c(Oc3ccc(NC(=O)Nc4ccc(C(F)(F)F)cc4)cc3)ccnc2cc1OCCC[C@@H](N)C(=O)OC1CCCC1` [Example 119, (R)-2-Amino-5-(6-methoxy-4-{4-[3-(4-trifluoromethyl-phenyl)-ureido]-phenoxy}-quinolin-7-yloxy)-pentanoic acid cyclopentyl ester], the IC50 was < 2000 nM at Aurora-A; < 2000 nM at Aurora-B; < 1000 nM with HUT cell line; < 1000 nM in the assay on U937 cell line; < 1000 nM in the assay with HCT 116 cell line.

As to `COc1cc2c(Oc3ccc(NC(=O)Nc4ccc(C(F)(F)F)cc4)cc3F)ccnc2cc1OCC[C@H](N)C(=O)OC1CCCC1` [Example 125, (S)-2-Amino-4-(4-{2-fluoro-4-[3-(4-trifluoromethyl-phenyl)-ureido]-phenoxy}-6-methoxy-quinolin-7-yloxy)-butyric acid cyclopentyl ester], the IC50 on Aurora-A was 2000 to 5000 nM; on Aurora-B, 2000 to 5000 nM; in the assay with HUT cell line it was < 1000 nM; in the assay with U937 cell line it was < 1000 nM; with HCT 116 cell line, < 1000 nM.
